Measurements from ChEMBL document CHEMBL3351632, “Design and synthesis of 4-heteroaryl 1,2,3,4-tetrahydroisoquinolines as triple reuptake inhibitors” (ACS Med Chem Lett, 2014).

Key:
Rattus norvegicus = species on record: Rattus norvegicus; assay: Drug metabolism in rat assessed as formation of (+)-2-(4-(benzo[b]thiophen-5-yl)-2-methyl-1,2,3,4-tetrahydroisoquinolin-7-ylamino)ethanol; assay type: ADME, organism-based; conditions: in vivo
[1] = Clearance in Sprague-Dawley rat at 10 mg/kg, po and 1 mg/kg, iv; assay type: ADME, organism-based; conditions: in vivo
[2] = Volume of distribution at steady state in Sprague-Dawley rat at 10 mg/kg, po and 1 mg/kg, iv; assay type: ADME, organism-based; conditions: in vivo, read-out: Vdss
[3] = Oral bioavailability in Sprague-Dawley rat at 10 mg/kg; assay type: ADME, organism-based; conditions: in vivo
[4] = Clearance in cynomolgus monkey at 2 mg/kg, po and 0.5 mg/kg, iv; assay type: ADME, organism-based, Macaca fascicularis; conditions: in vivo
[5] = Volume of distribution at steady state in cynomolgus monkey at 2 mg/kg, po and 0.5 mg/kg, iv; assay type: ADME, organism-based, Macaca fascicularis; conditions: in vivo, read-out: Vdss
[6] = Oral bioavailability at steady state in cynomolgus monkey at 2 mg/kg; assay type: ADME, organism-based, Macaca fascicularis; conditions: in vivo
[7] = Ratio of drug uptake in brain to plasma of Sprague-Dawley rat at 10 mg/kg, po measured after 1 hr; assay type: ADME, organism-based; set-up: dose 10 mg/kg, route oral; conditions: read-out: BPR
Liver microsome [8] = assay: Drug metabolism in human liver microsomes assessed as formation of (+)-2-(4-(benzo[b]thiophen-5-yl)-2-methyl-1,2,3,4-tetrahydroisoquinolin-7-ylamino)ethanol; assay type: ADME
Liver microsome [9] = assay: Drug metabolism in rat liver microsomes assessed as formation of (+)-2-(4-(benzo[b]thiophen-5-yl)-2-methyl-1,2,3,4-tetrahydroisoquinolin-7-ylamino)ethanol; assay type: ADME

For `CN1Cc2cc(N3CCOCC3)ccc2[C@@H](c2ccc3sccc3c2)C1`, the Drug metabolism (Rattus norvegicus) was “metabolite_notdetected”, the clearance [1] was 47 mL/min/kg and the Vd [2] was 14 L/kg. The bioavailability [3] was 81%, the clearance [4] was 27 mL/min/kg and the Vd [5] was 16 L/kg. For the same molecule, the bioavailability [6] was 39%, the Kp at 1 h [7] was 3 and the Drug metabolism (Liver microsome [8]) was “metabolite_detected”. The Drug metabolism (Liver microsome [9]) was “metabolite_detected”.
